Like-named read-outs stand apart in the source and are kept apart here.
Tests used:
[1] = biological target: IRAK4 (Homo sapiens (Human), UniProt Q9NWZ3); experiment: IRAK4 MSD degradation in OCI-LY10; assay type: cell-based
How it was run: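 Remaining IRAK4 quantified by electrochemiluminescent MSD sandwich assay with two anti-IRAK4 antibodies. Compounds were dosed as 8 concentrations in 1:3 steps from a 1 to 10 μM final top on OCI-LY10 cells, incubated 4 to 24 h at 37° C. under 5% CO2. DC50 fitted with a three-parameter logistic curve.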

[2] = test system: OCI-LY10; experiment: CTG Cell Viability Assay - OCI-LY10; assay type: cell-based, human; conditions: OCI-LY10, 4 days, read-out: CTG Cell Viability Assay - OCI-LY10: Average external-IC50
How it was run: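 Viability read by CellTiter-Glo luminescence after 4 days at 37° C under 5% CO2 with compound (top 10 μM final, 1:3 steps, 9 doses, DMSO 0.2%). Three-parameter logistic fit gave IC50.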

[3] = OCI-LY10, 4 hrs, MSD, read-out: IRAK4 MSD degradation in OCI-LY10 at 4 hrs: Average external-Abs DC50
[4] = OCI-LY10, 24 hrs, MSD, read-out: IRAK4 MSD degradation in OCI-LY10 at 24 hrs: Average external-Abs DC50
[5] = OCI-LY10, 4 hrs, read-out: IRAK4 MSD degradation in OCI-LY10 at 4 hrs: DC50
[6] = OCI-LY10, 24 hrs, read-out: IRAK4 MSD degradation in OCI-LY10 at 24 hrs: DC50

IRAK4, sequence (Q9NWZ3 whole entry): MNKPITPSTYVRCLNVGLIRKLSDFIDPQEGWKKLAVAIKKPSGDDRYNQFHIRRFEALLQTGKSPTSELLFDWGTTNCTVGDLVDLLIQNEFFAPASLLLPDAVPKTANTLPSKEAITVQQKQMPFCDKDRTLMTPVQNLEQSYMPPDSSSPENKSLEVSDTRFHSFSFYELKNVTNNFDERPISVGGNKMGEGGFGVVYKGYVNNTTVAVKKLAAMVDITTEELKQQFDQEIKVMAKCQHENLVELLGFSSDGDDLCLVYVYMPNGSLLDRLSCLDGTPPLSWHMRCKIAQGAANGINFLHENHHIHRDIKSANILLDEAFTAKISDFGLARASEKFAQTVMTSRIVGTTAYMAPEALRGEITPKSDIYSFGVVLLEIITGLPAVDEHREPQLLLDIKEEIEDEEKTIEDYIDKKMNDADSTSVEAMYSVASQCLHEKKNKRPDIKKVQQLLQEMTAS

SMILES	DC50 [1, 3] [nM]	IC50 ([2]; Homo sapiens, OCI-Ly10, 96 h) [nM]	DC50 [1, 4] [nM]	IC50 [2] [nM]	DC50 [1, 5] [nM]	DC50 [1, 6] [nM]
O=C1CCC(N2C(=O)c3cccc(NCCc4ccc(CNC[C@H]5CC[C@H](n6cc(NC(=O)c7cnn8ccc(N9C[C@H]%10C[C@@H]9CO%10)nc78)c(C(F)F)n6)CC5)cc4)c3C2=O)C(=O)N1 (stereo partly drawn) [I-351, N-[3-(difluoromethyl)-1-[4-[[[4-[2-[[2-(2,6-dioxo-3-piperidyl)-1,3-dioxo-isoindolin-4-yl]amino]ethyl]phenyl]methylamino]methyl]cyclohexyl]pyrazol-4-yl]-5-[(1R,4R)-2-oxa-5-azabicyclo[2.2.1]heptan-5-yl]pyrazolo[1,5-a]pyrimidine-3-carboxamide]	> 1000	> 1000	–	–	–	–
CN(CCCOCCCN)C[C@H]1CC[C@H](n2cc(NC(=O)c3cnn4ccc(N5CCOCC5)nc34)c(C(F)F)n2)CC1 [I-315, N-[1-[4-[[3-(3-aminopropoxy)propyl-methyl-amino]methyl]cyclohexyl]-3-(difluoromethyl)pyrazol-4-yl]-5-morpholino-pyrazolo[1,5-a] pyrimidine-3-carboxamide]	> 1000	> 1000	> 1000	–	–	–
CN(CCC1CCN(Cc2cccc3c2n(C)c(=O)n3C2CCC(=O)NC2=O)CC1)C[C@H]1CC[C@H](n2cc(NC(=O)c3cnn4ccc(N5C[C@H](N)CC(F)(F)C5)nc34)c(C(F)F)n2)CC1 (stereo partly shown) [I-155]	10 to 100	> 1000	–	–	–	–
Cn1c(=O)n(C2CCC(=O)NC2=O)c2cccc(CCCOC3CCN(C[C@H]4CC[C@H](n5cc(NC(=O)c6cnn7ccc(NCC8CC8)nc67)c(C(C)(C)O)n5)CC4)CC3)c21 (stereo partly shown) [I-267]	100 to 1000	–	–	> 1000	–	–
CN(CCCOCCCN(C)C(=O)c1ccc(CNCc2ccc(-c3ccc4c(cnn4CC4CC4)c3)cc2)cc1)C[C@H]1CC[C@H](n2cc(NC(=O)c3coc(-c4ccnc(NCC5CC5)c4)n3)c(C(F)F)n2)CC1 [I-133]	> 1000	> 1000	> 1000	–	–	–
O=C1CCC(N2C(=O)c3cccc(NCCC4CCN(C[C@H]5CC[C@H](n6cc(NC(=O)c7cnn8ccc(N9CCOCC9)nc78)c(C(F)F)n6)CC5)CC4)c3C2=O)C(=O)N1 (stereo partly shown) [I-365]	10 to 100	< 50	–	–	–	–
CC[C@@H]1[C@H](F)C(=O)N[C@@H]1COc1ncc(C#C[C@H]2CC[C@H](CN3CCC(OCCCc4ccc5c(c4)n(C)c(=O)n5C4CCC(=O)NC4=O)CC3)CC2)c2cc(C(N)=O)c(OC)cc12 (stereo partly shown) [I-187]	> 1000	> 1000	< 10	–	–	–
NC(=O)c1nn([C@H]2CC[C@@H](C(=O)NCCOCCOCCNc3cccc4c3C(=O)N(C3CCC(=O)NC3=O)C4=O)CC2)cc1NC(=O)c1coc(-c2ccnc(NCC(F)(F)F)c2)n1 (single isomer, unassigned) [I-14, N-(3-carbamoyl-1-((1s,4s)-4-((2-(2-(2-((2-(2,6-dioxopiperidin-3-yl)-1,3-dioxoisoindolin-4-yl)amino)ethoxy)ethoxy)ethyl)carbamoyl)cyclohexyl)-1H-pyrazol-4-yl)-2-(2-((2,2,2-trifluoroethyl)amino)pyridin-4-yl)oxazole-4-carboxamide]	10 to 100	100 to 500	–	–	–	–
Cn1c(=O)n([C@H]2CCC(=O)NC2=O)c2cccc(CCCOC3CCN(C[C@H]4CC[C@H](n5cc(NC(=O)c6cnn7ccc(N8CCOCC8)nc67)c(C(F)F)n5)CC4)CC3)c21 [I-310, N-(3-(difluoromethyl)-1-((1r,4r)-4-((4-(3-(1-((S)-2,6-dioxopiperidin-3-yl)-3-methyl-2-oxo-2,3-dihydro-1H-benzo [d]imidazol-4-yl)propoxy)piperidin-1-yl)methyl)cyclohexyl)-1H-pyrazol-4-yl)-5-morpholinopyrazolo[1,5-a]pyrimidine-3-carboxamide]	< 10	> 1000	–	–	–	–
O=C1CCC(N2C(=O)c3cccc(NCCOC4CCN(C[C@H]5CC[C@H](n6cc(NC(=O)c7cnn8ccc(N9CCOCC9)nc78)c(C(F)F)n6)CC5)CC4)c3C2=O)C(=O)N1 (stereo partly shown) [I-210]	10 to 100	> 1000	10 to 100	–	–	–
O=C1CCC(n2c3ccccc3c3c(CCCOC4CCN(C[C@H]5CC[C@H](n6cc(NC(=O)c7cnn8ccc(N9CCOCC9)nc78)c(C(F)F)n6)CC5)CC4)ccnc32)C(=O)N1 (stereo partly shown) [I-192]	10 to 100	> 1000	–	–	–	–
O=C1CCC(N2C(=O)c3cccc(NCCCOC4CCN(C[C@H]5OC[C@H](n6cc(NC(=O)c7cnn8ccc(N9CCOCC9)nc78)c(C(F)F)n6)CO5)CC4)c3C2=O)C(=O)N1 (stereo partly shown) [I-451, N-[3-(difluoromethyl)-1-[2-[[4-[3-[[2-(2,6-dioxo-3-piperidyl)-1,3-dioxo-isoindolin-4-yl]amino]propoxy]-1-piperidyl]methyl]-1,3-dioxan-5-yl]pyrazol-4-yl]-5-morpholino-pyrazolo [1,5-a] pyrimidine-3-carboxamide]	–	100 to 500	–	–	10 to 100	10 to 100
O=C1CCC(N2C(=O)c3cccc(OCCCOC4CCN(C[C@H]5CC[C@H](n6cc(NC(=O)c7cnn8ccc(N9CCOCC9)nc78)c(C(F)F)n6)CC5)CC4)c3C2=O)C(=O)N1 (stereo partly shown) [I-209]	10 to 100	> 1000	< 10	–	–	–
Cn1c(=O)n(C2CCC(=O)NC2=O)c2ccc(CCCOCCOCC(F)CNC(=O)c3cnc(Nc4ccc5cnccc5n4)cc3NC3CC3)cc21 (stereo not shown) [I-138]	> 1000	> 1000	> 1000	–	–	–
Cn1c(=O)n(C2CCC(=O)NC2=O)c2ccc(CCCCCCC(=O)N3CCN([C@H]4CC[C@H](Nc5ncnc6[nH]cc(C7CCOCC7)c56)CC4)CC3)cc21 (stereo partly shown) [I-22]	> 1000	100 to 500	> 1000	–	–	–
CN(CC1CCN(c2ccc3c(c2)n(C)c(=O)n3C2CCC(=O)NC2=O)CC1)C[C@H]1CC[C@H](n2cc(NC(=O)c3coc(-c4ccnc(NCC5CC5)c4)n3)c(C(F)F)n2)CC1 (stereo partly shown) [I-236]	< 10	> 1000	–	–	–	–
CN(CCCOCCCNc1cccc2c1C(=O)N(C1CCC(=O)NC1=O)C2=O)C[C@H]1CC[C@H](n2cc(N(C)C(=O)c3coc(-c4ccnc(NCC5CC5)c4)n3)c(C(F)F)n2)CC1 (stereo partly shown) [I-401]	100 to 1000	500 to 1000	> 1000	–	–	–
Cn1c(=O)n(C2CCC(=O)NC2=O)c2cccc(CN3CCC(CCN4CCC(n5cc(NC(=O)c6cnn7ccc(N8CCOCC8)nc67)c(C(F)F)n5)CC4)CC3)c21 (stereo not shown) [I-177]	< 10	100 to 500	–	–	–	–
C[C@@H]1CN(c2ccn3ncc(C(=O)Nc4cn([C@H]5CC[C@H](CN6CCC(OCCCc7cccc8c7n(C)c(=O)n8C7CCC(=O)NC7=O)CC6)CC5)nc4C(F)F)c3n2)C[C@H](C)O1 (stereo partly drawn) [I-275, N-[3-(difluoromethyl)-1-[4-[[4-[3-[1-(2,6-dioxo-3-piperidyl)-3-methyl-2-oxo-benzimidazol-4-yl]propoxy]-1-piperidyl]methyl]cyclohexyl]pyrazol-4-yl]-5-[(2R,6S)-2,6-dimethylmorpholin-4-yl] pyrazolo[1,5-a] pyrimidine-3-carboxamide]	10 to 100	> 1000	–	–	–	–
Cn1c(=N)n(C2CCC(=O)NC2=O)c2ccc(CCCOCCCN3CCC(n4cc(NC(=O)c5cnn6ccc(N7CCOCC7)nc56)c(C(F)F)n4)CC3)cc21 (stereo not shown) [I-179]	100 to 1000	> 1000	–	–	–	–
O=C1CCC(N2C(=O)c3cccc(NCCOCCCN4CCN(c5ncc(-n6cc(NC(=O)c7cnn8ccc(N9C[C@H]%10C[C@@H]9CO%10)nc78)c(C(F)F)n6)cn5)CC4)c3C2=O)C(=O)N1 (stereo partly shown) [I-474]	–	< 50	–	–	100 to 1000	10 to 100
Cn1c(=O)n(C2CCC(=O)NC2=O)c2cccc(CN3CCC(CN4CCC(n5cc(NC(=O)c6cnn7ccc(N[C@@H]8CCCC[C@@H]8O)nc67)c(C(F)F)n5)CC4)CC3)c21 (stereo partly shown) [I-150]	10 to 100	< 50	–	–	–	–
CC[C@@H]1[C@H](F)C(=O)N[C@@H]1COc1ncc(C#CC2CCN(CC3CCN(Cc4cccc5c4n(C)c(=O)n5C4CCC(=O)NC4=O)CC3)CC2)c2cc(C(N)=O)c(OC)cc12 (stereo partly shown) [I-194]	10 to 100	> 1000	–	–	–	–
CC[C@@H]1[C@H](F)C(=O)N[C@@H]1COc1ncc(C#C[C@H]2CC[C@H](CN3CCO[C@@H](COCCCNc4cccc5c4C(=O)N(C4CCC(=O)NC4=O)C5=O)C3)CC2)c2cc(C(N)=O)c(OC)cc12 (stereo partly shown) [I-342]	100 to 1000	50 to 100	–	–	–	–
Cc1ncsc1-c1ccc(CNC(=O)[C@@H]2C[C@@H](O)CN2C(=O)[C@@H](NC(=O)COCCOCCOCCOCC(=O)N2CCN(C3CCC(Nc4ncnc5cc(CC#N)ccc45)CC3)CC2)C(C)(C)C)cc1 (stereo partly shown) [I-49]	> 1000	> 1000	–	–	–	–
CN(C[C@H]1CC[C@H](n2cc(NC(=O)c3cnn4ccc(N5C[C@H]6C[C@@H]5CO6)nc34)c(C(F)F)n2)CC1)C1CCC(CNc2cccc3c2C(=O)N(C2CCC(=O)NC2=O)C3=O)CC1 (stereo partly shown) [I-324]	100 to 1000	< 50	–	–	–	–
NCC#Cc1ccc(-n2cc(NC(=O)c3coc(-c4ccnc(NCC5CC5)c4)n3)c(C(F)F)n2)cc1 [I-391, N-[l-[4-(3-aminoprop-1-ynyl)phenyl]-3-(difluoromethyl)pyrazol-4-yl]-2-[2-(cyclopropylmethylamino)-4-pyridyl]oxazole-4-carboxamide]	> 1000	> 1000	> 1000	–	–	–
CN(Cc1ccc(CCNc2cccc3c2C(=O)N(C2CCC(=O)NC2=O)C3=O)cc1)C[C@H]1CC[C@H](n2cc(NC(=O)c3cnn4ccc(N5CCOCC5)nc34)c(C(F)F)n2)CC1 (stereo partly shown) [I-325]	100 to 1000	> 1000	10 to 100	–	–	–
CN(C[C@H]1CC[C@H](n2cc(NC(=O)c3cnn4ccc(N5C[C@H]6C[C@@H]5CO6)nc34)c(C(F)F)n2)CC1)C1CCN(CCNc2cccc3c2C(=O)N(C2CCC(=O)NC2=O)C3=O)CC1 (stereo partly shown) [I-367]	10 to 100	100 to 500	–	–	–	–

From patent US11352350B2, “IRAK degraders and uses thereof” (Kymera Therapeutics, Inc., priority 2018, dated 2022)
